Laboratory results: patent US10441663B2, “Methods for treating cancer” (Bicycle Therapeutics Limited, priority 2016, dated 2019)
*1 amine or outer side, *2 acyl side, *3 side chain or, on linkers, in order; H or OH if unused. Where a SMILES comes first, the peptide text is derived from it. Bridges are numbered along the chain shown (N, C = ends). [ ]: non-standard residue; d: D form. The star is where a group is joined. X1 = COc1cc2cc(c1Cl)N(C)C(=O)C[C@H](OC(=O)[C@H](C)N(C)C(=O)CCSSC(C)CCC(=O)*)[C@]1(C)O[C@H]1[C@H](C)[C@@H]1C[C@@](O)(NC(=O)O1)[C@H](OC)/C=C/C=C(\C)C2; 1Nal = N[C@@H](Cc1cccc2ccccc12)C(=O)O; TBMB = c1c(C[*:1])cc(C[*:3])cc1C[*:2]; Tle = CC(C)(C)[C@H](N)C(=O)O; βAla = NCCC(=O)O; Sar = CNCC(=O)O

Experiments:
MDA-MB-231 xenograft = assay: In vivo efficacy of BT1718 in MDA-MB-231 xenograft; parameters: species or system Mus Musculus; key to Best response at 10 mg/kg: CR complete response; PR partial response
Procedure: The objective of this study was to evaluate the in vivo anti-tumor efficacy of BT1718in treatment of HT1080, NCI-H292, NCI-H1975, MDA-MB-231, HCC1806, RPMI2650, HCT-15, HT-29 and SNU-16 xenograft in BALB/c nude mice.
The HT1080, NCI-H292, NCI-H1975, MDA-MB-231, HCC1806, RPMI2650, HCT-15, HT-29 and SNU-16 tumor cells were maintained in vitro as a monolayer culture in medium supplemented with 10% heat inactivated fetal bovine serum at 37° C. in an […]. The tumor cells will be routinely subcultured twice weekly by trypsin-EDTA treatment. The cells growing in an exponential growth phase will be harvested and counted for tumor inoculation.
Mouse was inoculated subcutaneously at the right flank with tumor cells for tumor development. The animals were randomized and treatment was started when the average tumor reaches certain volume for the efficacy study, the inoculating cell amounts and starting tumor size were shown as below in Table 9. The test article administration and the animal numbers in each group were shown in the experimental design in Table 10.
All the procedures related to animal handling, care and the treatment in the study were performed according to the guidelines of the Association for Assessment and Accreditation of Laboratory Animal Care (AAALAC). At the time of routine monitoring, the animals were daily checked for any effects of tumor growth and treatments on normal behavior such as mobility, food and water consumption (by looking only), body weight gain/loss (body weights were measured every day), eye/hair matting and any other abnormal effect as stated in the protocol. Death and observed clinical signs were recorded on the basis of the numbers of animals within each subset.
The major endpoint was to see if the tumor growth could be delayed or mice could be cured. Tumor size was measured three times weekly in two dimensions using a caliper, and the volume was expressed in mm^3 using the formula: V=0.5 a×b^2 where a and b are the long and short diameters of the tumor, respectively. The tumor size was then used for calculations of T/C value. The T/C value (in percent) is an indication of antitumor effectiveness; T and C are the mean volumes of the treated and control groups, respectively, on a given day.
TGI was calculated for each group using the formula: TGI (%)=[1−(Ti−T0)/(Vi−V0)]×100; Ti is the average tumor volume of a treatment group on a given day, T0 is the average tumor volume of the treatment group on the day of treatment start, Vi is the average tumor volume of the vehicle control group on the same day with Ti, and V0 is the average tumor volume of the vehicle group on the day of treatment start.
Summary statistics, including mean and the standard error of the mean (SEM), are provided for the tumor volume of each group at each time point.
Statistical analysis of difference in tumor volume among the groups was conducted on the data obtained at the best therapeutic time point after the final dose.
A one-way ANOVA was performed to compare tumor volume among groups, and when a significant F-statistics (a ratio of treatment variance to the error variance) was obtained, comparisons between groups were carried out with Games-Howell test. All data were analyzed using Prism. P<0.05 was considered to be statistically significant.

MT1-MMP = MT1-MMP (Homo sapiens, UniProt P50281); assay: Fluorescence polarisation competition binding
Procedure: By means of comparison, a non-reducible BDC was prepared, BT1721, which includes a non-reducible maleimide thioether linkage which is […].

[1] = MDA-MB-231, 10 mpk, biw, day 14

## COc1cc2cc(c1Cl)N(C)C(=O)C[C@H](OC(=O)[C@H](C)N(C)C(=O)CCSSC(C)CCC(=O)NCCC(=O)N(C)CC(=O)N(C)CC(=O)N(C)CC(=O)N(C)CC(=O)N(C)CC(=O)N(C)CC(=O)N(C)CC(=O)N(C)CC(=O)N(C)CC(=O)N(C)CC(=O)N[C@@H](C)C(=O)N[C@H]1CSCc3cc4cc(c3)CSC[C@H](NC(=O)[C@@H](C)NC(=O)[C@H](Cc3cccc5ccccc35)NC(=O)[C@H](CCC(=O)O)NC(=O)[C@H](CC(N)=O)NC(=O)[C@@H](C)NC1=O)C(=O)N[C@@H](CCC(=O)O)C(=O)N[C@@H](CC(=O)O)C(=O)N[C@@H](Cc1ccccc1)C(=O)N[C@@H](Cc1ccc(O)cc1)C(=O)N[C@@H](CC(=O)O)C(=O)N[C@@H](C(C)(C)C)C(=O)N[C@H](C(N)=O)CSC4)[C@]1(C)O[C@H]1[C@H](C)[C@@H]1C[C@@](O)(NC(=O)O1)[C@H](OC)/C=C/C=C(\C)C2 (stereo partly drawn) [BT1718] ({X1-βAla}-[Sar][Sar][Sar][Sar][Sar][Sar][Sar][Sar][Sar][Sar]AC[dA]NE[1Nal][dA]CEDFYD[Tle]C-NH2; linker 12-18-25 via TBMB (inferred))
MDA-MB-231 xenograft; 10 mg/kg biw re-treatment
  tumor behaviour on resumed treatment: slow re-growth
MDA-MB-231 xenograft; 1 mpk biw, day 0
  Body Weight: 23.4 ± 0.5 g
  Tumor Volume: 187 ± 6 mm^3
MDA-MB-231 xenograft; 1 mpk biw, day 2
  Body Weight: 23.3 ± 0.6 g
  Tumor Volume: 288 ± 25 mm^3
MDA-MB-231 xenograft; 1 mpk biw, day 4
  Body Weight: 23.3 ± 0.6 g
  Tumor Volume: 435 ± 25 mm^3
MDA-MB-231 xenograft; 1 mpk biw, day 7
  Body Weight: 24.6 ± 0.5 g
  Tumor Volume: 636 ± 53 mm^3
MDA-MB-231 xenograft; 1 mpk biw, day 9
  Body Weight: 24.6 ± 0.6 g
  Tumor Volume: 822 ± 117 mm^3
MDA-MB-231 xenograft; 1 mpk biw, day 11
  Body Weight: 24.1 ± 0.1 g
  Tumor Volume: 979 ± 51 mm^3
MDA-MB-231 xenograft; 1 mpk biw, day 14
  Body Weight: 24.9 ± 0.5 g
  Tumor Volume: 1221 ± 62 mm^3
MDA-MB-231 xenograft; 3 mpk biw, day 0
  Body Weight: 23.0 ± 0.9 g
  Tumor Volume: 187 ± 11 mm^3
MDA-MB-231 xenograft; 3 mpk biw, day 2
  Body Weight: 22.5 ± 1.0 g
  Tumor Volume: 281 ± 23 mm^3
MDA-MB-231 xenograft; 3 mpk biw, day 4
  Body Weight: 22.3 ± 1.0 g
  Tumor Volume: 389 ± 21 mm^3
MDA-MB-231 xenograft; 3 mpk biw, day 7
  Body Weight: 23.8 ± 1.1 g
  Tumor Volume: 547 ± 38 mm^3
MDA-MB-231 xenograft; 3 mpk biw, day 9
  Body Weight: 23.8 ± 1.1 g
  Tumor Volume: 729 ± 74 mm^3
MDA-MB-231 xenograft; 3 mpk biw, day 11
  Body Weight: 23.6 ± 1.1 g
  Tumor Volume: 829 ± 79 mm^3
MDA-MB-231 xenograft; 3 mpk biw, day 14
  Body Weight: 23.9 ± 1.3 g
  Tumor Volume: 1021 ± 65 mm^3
MDA-MB-231 xenograft; 10 mpk biw, day 0
  Body Weight: 23.3 ± 1.0 g
  Tumor Volume: 187 ± 10 mm^3
MDA-MB-231 xenograft; 10 mpk biw, day 2
  Body Weight: 22.9 ± 1.3 g
  Tumor Volume: 270 ± 25 mm^3
MDA-MB-231 xenograft; 10 mpk biw, day 4
  Body Weight: 22.2 ± 0.9 g
  Tumor Volume: 312 ± 27 mm^3
MDA-MB-231 xenograft; 10 mpk biw, day 7
  Body Weight: 23.3 ± 1.2 g
  Tumor Volume: 294 ± 31 mm^3
MDA-MB-231 xenograft; 10 mpk biw, day 9
  Body Weight: 23.0 ± 1.1 g
  Tumor Volume: 248 ± 23 mm^3
MDA-MB-231 xenograft; 10 mpk biw, day 11
  Body Weight: 21.6 ± 1.0 g
  Tumor Volume: 204 ± 19 mm^3
MDA-MB-231 xenograft; 10 mpk biw, day 14
  Body Weight: 24.3 ± 1.1 g
  Tumor Volume: 158 ± 20 mm^3
MDA-MB-231 xenograft; MDA-MB-231, 10 mg/kg
  Best response at 10 mg/kg: CR
MDA-MB-231 xenograft; MDA-MB-231, 1 mpk, biw, day 14
  TGI: 7.6%
  Tumor Volume: 1221 ± 62 mm^3
MDA-MB-231 xenograft; MDA-MB-231, 3 mpk, biw, day 14
  TGI: 25.5%
  Tumor Volume: 1021 ± 65 mm^3
MDA-MB-231 xenograft; [1]
  TGI: 102.6%
  Tumor Volume: 158 ± 20 mm^3
MDA-MB-231 xenograft; MDA-MB-231, dose leading to tumor-stasis
  Minimally Effective Dose IV BIW: <10 mg/kg
MDA-MB-231 xenograft; after 10 mg/kg biw
  dosing suspension until re-growth to 150 mm3: 3 weeks
MDA-MB-231 xenograft; after 2-3 weeks 10 mg/kg biw
  tumor volume after regression: below 50 mm3
MT1-MMP
  Ki: 0.9 nM
